We go through 10 compounds from PMC9736855, “Discovery of 3-Amino-1H-pyrazole-Based Kinase Inhibitors to Illuminate the Understudied PCTAIRE Family” (International Journal of Molecular Sciences, 2022).

One experiment deals with T1, CDK16 (Homo sapiens, UniProt Q00536).
T1 construct: purchased in-house DSF panel (SGC Frankfurt)
As to the kind of experiment: DSF. In kind it is binding. As to conditions: 10 μM compound. From the text: (§1) To investigate the selectivity profile of the different series, a differential scanning fluorimetry (DSF) assay was used. This assay offers a rapid and sensitive screening method that determines the denaturation temperature of a protein in absence and presence of a compound. This assay format measures the fluorescence of a dye, which depends on the folding state of the protein. The difference between the melting temperature (ΔTm) in the absence and presence of the compound represents the binding strength to the protein.
(§2) Measurements were performed in duplicates.

Experiment [1] addresses T2, CDK2 (Homo sapiens, UniProt P24941).
T2 construct: purchased in-house DSF panel (SGC Frankfurt)
As to the kind of experiment: DSF. It counts as binding. Conditions: 10 μM compound.
Text: as §1, §2

Experiment [2] relates to in-house panel of 89–105 kinases. The experiment in a line: DSF selectivity screen. It counts as binding. Conditions: number of kinases of the DSF panel.
Text: To investigate the selectivity profile of the different series, a differential scanning fluorimetry (DSF) assay was used. This assay offers a rapid and sensitive screening method that determines the denaturation temperature of a protein in absence and presence of a compound. This assay format measures the fluorescence of a dye, which depends on the folding state of the protein. The difference between the melting temperature (ΔTm) in the absence and presence of the compound represents the binding strength to the protein. We used an in-house panel of 89–105 kinases to screen all synthesized inhibitors (Tables S1–S3).
as §2

The target in another experiment is T3, CDK16/Cyclin Y (Homo sapiens, UniProt Q00536).
T3 construct: Full-length kinases were obtained as plasmids cloned in frame with a terminal NanoLuc-fusion; CS1810C178 (CCNY); host or cells: HEK293T
The experiment in a line: NanoBRET. Conditions: Figure 7, 11-point dose-response in duplicates; read-out: NanoBRET EC50 ± SEM against CDK16. In kind it is cell-based. The method, then:
Next, to specifically quantify the outcome of the cellular activity of the compounds, a NanoBRET cellular target engagement assay was performed. The determination of the cellular potency on CDK16 correlated well with the corresponding DSF assay data (Figure S2). […] As mentioned before, the exchange from a methyl ester to an iso-propyl or tert-butyl ester led to a higher stabilization of the kinase in the DSF assay, which correlated with an increase in cellular potency as determined in the NanoBRET assay. […] The number of potential off-targets was low with 1 and 2 kinases with ΔTm >5 °C (Figure 4), highlighting these inhibitors for more comprehensive selectivity studied within the CDK and particular the TAIRE subfamily.
(§3) The assay was performed as described previously. In brief: Full-length kinases were obtained as plasmids cloned in frame with a terminal NanoLuc-fusion (Promega, Madison, WI, USA), as specified in table (Table S6). Plasmids were transfected into HEK293T cells using FuGENE HD (Promega, E2312) and proteins were allowed to express for 20h. Serially diluted inhibitor and NanoBRET Kinase Tracer (Promega) at a concentration determined previously as the KD,app (Table S5) were pipetted into white 384-well plates (Greiner 781207) using an Echo acoustic dispenser (Labcyte, San Jose, CA, USA). The corresponding protein-transfected cells were added and reseeded at a density of 2.5 × 10^5 cells/mL after trypsinization and resuspending in Opti-MEM without phenol red (Life Technologies, Carlsbad, CA, USA). The system was allowed to equilibrate for 2 h at 37 °C/5% CO2 prior to BRET measurements. To measure BRET, NanoBRET NanoGlo Substrate + Extracellular NanoLuc Inhibitor (Promega, N2540) was added as per the manufacturer’s protocol, and filtered luminescence was measured on a PHERAstar plate reader (BMG Labtech, Ortenberg, Germany) equipped with a luminescence filter pair (450 nm BP filter (donor) and 610 nm LP filter (acceptor)). Competitive displacement data were then graphed using GraphPad Prism 9 software using a normalized 3-parameter curve fit with the following equation: Y = 100/(1 + 10^(X–LogEC50)).

Experiment [3] deals with T4, GSK3B (Homo sapiens, UniProt P49841). As to the kind of experiment: DSF. It counts as binding. Details: purchased in-house DSF panel (SGC Frankfurt). Conditions: 10 μM compound.
Text: as §1, §2
Target sequence in this assay (P49841 35-386): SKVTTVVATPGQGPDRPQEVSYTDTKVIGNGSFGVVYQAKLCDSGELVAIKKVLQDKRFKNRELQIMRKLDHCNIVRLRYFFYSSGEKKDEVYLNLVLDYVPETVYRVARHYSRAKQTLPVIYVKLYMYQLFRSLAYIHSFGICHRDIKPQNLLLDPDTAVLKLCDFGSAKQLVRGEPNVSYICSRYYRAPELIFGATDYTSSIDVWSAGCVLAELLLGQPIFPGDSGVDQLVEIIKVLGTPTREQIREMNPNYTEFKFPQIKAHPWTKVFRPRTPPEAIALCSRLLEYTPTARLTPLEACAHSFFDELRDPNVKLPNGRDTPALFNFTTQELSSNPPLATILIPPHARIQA

The target in experiment [4] is T4, GSK3B. As to the kind of experiment: NanoBRET. In kind it is cell-based. The arrangement: Full-length kinases were obtained as plasmids cloned in frame with a terminal NanoLuc-fusion; host or cells: HEK293T. On the procedure: as §3, with “Competitive displacement data were then graphed using GraphPad Prism 9 software using a normalized 3-parameter curve fit with the following equation: Y = 100/(1 + 10^(X–LogEC50)).” left out
Target sequence in this assay (P49841 whole entry): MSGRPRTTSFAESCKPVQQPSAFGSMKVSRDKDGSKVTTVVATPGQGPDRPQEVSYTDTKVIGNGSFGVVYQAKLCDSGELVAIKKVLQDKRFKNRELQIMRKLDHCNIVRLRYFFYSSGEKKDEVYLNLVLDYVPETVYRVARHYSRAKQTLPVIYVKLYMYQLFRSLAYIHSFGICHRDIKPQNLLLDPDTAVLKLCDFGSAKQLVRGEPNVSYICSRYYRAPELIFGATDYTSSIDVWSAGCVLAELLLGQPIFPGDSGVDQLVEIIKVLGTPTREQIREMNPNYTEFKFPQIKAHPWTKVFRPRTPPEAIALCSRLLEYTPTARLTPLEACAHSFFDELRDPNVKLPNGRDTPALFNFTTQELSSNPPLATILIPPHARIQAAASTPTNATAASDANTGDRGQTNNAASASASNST

The subject of a further experiment is HCT116-FUCCI cells. As to the kind of experiment: FUCCI cell cycle assay and viability assessment. It counts as cell-based. Conditions: 1, 5, 10 µM (milciclib 1, 10 µM), 24 h. On the procedure:
This technology enables the detection of cell cycle states (G1, G2/M, or S phase) on a single cell level. Additionally, a viability assessment, as described by Tjaden et. al., was performed using Hoechst33342 as a nuclear marker. […] At 10 µM of the same compound, the pyknosed nuclei rate was even higher, on average 45% (Figure 9C). An increase in cells including a pyknosed nucleus indicate apoptotic cell death, due to typical morphological changes like DNA condensation. […] Milciclib is a published CDK2 inhibitor and was used as a reference compound [55]. […] At later time points, the G2/M phase arrest was no longer detectable (Table S7). This can be explained due to the increasing amount of apoptotic cells.
To validate the influence of the compounds on the cell cycle, a florescent ubiquitination-based cell cycle indicator (FUCCI) assay was performed as described previously. In Brief, HCT116-FUCCI cells, stably expressing the FUCCI system, introduced by the Sleeping Beauty transposon system, were seeded at a density of 1250 cells per well in a 384 well plate (Cell culture microplate, PS, f-bottom, µClear®, 781091, Greiner, Frickenhausen, Germany) in culture medium (50 µL per well) and stained additionally with 60 nM Hoechst33342 (Thermo Scientific). Fluorescence and cellular shape were measured before and after compound treatment for 72 h every 12 h using the CQ1 high-content confocal microscope (Yokogawa, Tokyo, Japan). Compounds were added directly to the cells at three different concentrations (1 µM, 5 µM and 10 µM). The following parameters were used for image acquisition: Ex 405 nm/Em 447/60 nm, 500ms, 50%; Ex 561 nm/Em 617/73 nm, 100 ms, 40%; Ex 488/Em 525/50 nm, 50 ms, 40%; Ex 640 nm/Em 685/40, 50 ms, 20 %; bright field, 300ms, 100% transmission, one centered field per well, 7 z stacks per well with 55 µm spacing. Analysis of images was performed using the CellPathfinder software (Yokogawa). The cell count was normalized against the cell count of cells treated with 0.1% DMSO. All normal gated cells were further classified in cells containing healthy, fragmented or pyknosed nuclei. […] Error bars show SEM of biological duplicates. All data can be found in Table S7.

The next experiment deals with CDK16 and GSK3. The experiment in a line: proteome-wide CETSA MS. In kind it is cell-based. As to conditions: K562 cells, 30 µM, 60 min. The method, then:
To verify whether the substances also lead to stabilization of proteins in the cellular system, proteome-wide CETSA experiments were performed. Therefore, lead structure 1 and some compounds from the second series (21b, 21d, 21e, 21h, and 21i) were selected for this study (Figure 6, Figure S1). While the statistical significance is plotted on the Y-axis, the relative protein amount is shown on the X-axis. […] Based on excellent proteome-wide selectivity identifying CDK16 and GSK3 as the most prominently stabilized kinases, 21d and 21i were selected for further investigations. […] We therefore decided to proceed with a CDK16-specific cellular assay.
Compressed CETSA MS assays, also known as PISA (Proteome Integral Stability Alteration assay), were performed as previously described by Chernobrovkin et. al., with some minor changes. K562 cells were obtained from ATCC. K562 cells were mixed with an equal volume of compound solution, final concentartion of 30 µM, in a buffer (20 mM HEPES, 138 mM NaCl, 5 mM KCl, 2 mM CaCl2, 1 mM MgCl2, pH 7.4). One percent and DMSO was used as a control. Cells were incubated at +37 °C for 60 min. The cell suspension was split into 12 aliquots which were heated at a different temperature between 44 and 66 °C for 3 min. After the heating, the cells were lysed through freeze–thawing them 3 times and the lysed aliquots were pooled together. Cell debris and aggregates were removed through centrifugation (20 min at 30.000× g).

The subject of another experiment is 359 wild-type kinases. The arrangement: method as in PMID 19053485. As to conditions: kinome-wide screen; cited from earlier work.
Experiment [5] concerns the target T2, CDK2. Conditions: cited from earlier work.
The test system of another experiment is CDK5. As to conditions: cited from earlier work.

T1 sequence (Q00536 163-478): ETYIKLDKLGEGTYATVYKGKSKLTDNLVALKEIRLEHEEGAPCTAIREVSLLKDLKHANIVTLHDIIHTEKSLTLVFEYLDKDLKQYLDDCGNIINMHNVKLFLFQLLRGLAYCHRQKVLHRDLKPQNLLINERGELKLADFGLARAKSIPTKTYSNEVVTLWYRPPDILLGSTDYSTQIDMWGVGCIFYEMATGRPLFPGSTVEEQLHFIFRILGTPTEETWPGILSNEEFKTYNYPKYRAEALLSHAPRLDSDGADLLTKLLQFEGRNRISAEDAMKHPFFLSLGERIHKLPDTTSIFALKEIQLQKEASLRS
T3 sequence (Q00536 whole entry, the tested form may be a part): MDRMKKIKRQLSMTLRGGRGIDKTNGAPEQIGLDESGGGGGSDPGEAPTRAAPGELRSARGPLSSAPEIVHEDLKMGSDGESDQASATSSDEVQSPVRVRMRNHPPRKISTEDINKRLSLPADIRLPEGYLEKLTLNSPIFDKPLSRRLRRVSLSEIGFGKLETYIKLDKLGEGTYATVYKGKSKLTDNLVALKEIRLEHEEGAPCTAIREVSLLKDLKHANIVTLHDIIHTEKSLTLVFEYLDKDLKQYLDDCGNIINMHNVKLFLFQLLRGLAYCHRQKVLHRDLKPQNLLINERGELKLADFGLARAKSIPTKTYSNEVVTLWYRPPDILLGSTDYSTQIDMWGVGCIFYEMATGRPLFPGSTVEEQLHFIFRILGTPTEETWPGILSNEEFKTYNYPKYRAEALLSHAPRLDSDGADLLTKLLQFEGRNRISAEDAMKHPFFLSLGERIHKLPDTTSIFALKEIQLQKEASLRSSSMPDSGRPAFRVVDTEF
T3 sequence (Q8ND76 2-341 partner limits assumed): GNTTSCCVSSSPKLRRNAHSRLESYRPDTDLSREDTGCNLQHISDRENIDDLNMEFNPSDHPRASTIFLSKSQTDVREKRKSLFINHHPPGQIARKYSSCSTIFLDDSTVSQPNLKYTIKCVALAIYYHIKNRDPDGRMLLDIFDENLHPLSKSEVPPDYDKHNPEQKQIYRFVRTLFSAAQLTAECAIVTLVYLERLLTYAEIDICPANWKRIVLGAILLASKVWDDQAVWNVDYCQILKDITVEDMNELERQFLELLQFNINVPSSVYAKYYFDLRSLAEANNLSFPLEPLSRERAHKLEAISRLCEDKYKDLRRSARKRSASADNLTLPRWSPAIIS

The ΔTm is the change in melting temperature against a reference sample. One may read the EC50 as the concentration at which the effect is half-maximal. `COC(=O)c1cc(Nc2ccnc(Nc3ccc(CC#N)cc3)n2)[nH]n1` [21f, methyl 5-((2-((4-(cyanomethyl)phenyl)amino)pyrimidin-4-yl)amino)-1H-pyrazole-3-carboxylate]: the ΔTm at 10 µM turned out to be 5.3 °C at CDK16, 7.8 °C on CDK2 [1] and 12.3 ± 0.7 °C at GSK3B [3]. For the same compound, the “Kinases with shifts > 5°C” value in experiment [2] was determined as 27. Further, on CDK16/Cyclin Y, the concentration for a half-maximal effect (EC50) worked out at 112 ± 8.6 nM.
As to `COC(=O)c1cc(Nc2ccnc(Nc3ccc(CCN)cc3)n2)n[nH]1` [compound 24, methyl 3-((2-((4-(2-aminoethyl)phenyl)amino)pyrimidin-4-yl)amino)-1H-pyrazole-5-carboxylate], the thermal shift (ΔTm) at 10 µM at CDK16 is 2.4 ± 0.1 °C; on CDK2 [1], 3 °C; at GSK3B [3], 9.5 °C. Further, the EC50 at CDK16/Cyclin Y was determined as 2830 ± 544 nM; on GSK3B [4], 18000 nM.
As for `CC(C)(C)OC(=O)NCCCCCNc1nccc(Nc2cc(C(=O)OC(C)(C)C)[nH]n2)n1` [43b, tert-butyl 3-((2-((5-((tert-butoxycarbonyl)amino)pentyl)amino)pyrimidin-4-yl)amino)-1H-pyrazole-5-carboxylate], the ΔTm at 10 µM at CDK16 worked out at 9.3 ± 0.1 °C; on CDK2 [1], 6.5 ± 0.1 °C; on GSK3B [3] it was 6.6 ± 0.1 °C. For the same compound, the “Kinases with shifts > 5°C” value in experiment [2] was 7–10. Moreover, the 50% effective concentration (EC50) on CDK16/Cyclin Y is 76 ± 0.9 nM.
On to `CNC(=O)c1nn(C)c2c1C(C)(C)Cc1cnc(Nc3ccc(N4CCN(C)CC4)cc3)nc1-2` [Milciclib, reference compound], for which the “effect on the cell cycle (FUCCI)” value in the experiment with HCT116-FUCCI cells is “G1 cell cycle arrest”.
Consider `CC(C)OC(=O)c1cc(Nc2ccnc(NCCCCCNC(=O)OC(C)(C)C)n2)n[nH]1` [42b, isopropyl 3-((2-((5-((tert-butoxycarbonyl)amino)pentyl)amino)pyrimidin-4-yl)amino)-1H-pyrazole-5-carboxylate], for which the values for the ΔTm at 10 µM at CDK16, at CDK2 [1] and on GSK3B [3] were 9.1 ± 0.1 °C, 6.5 °C and 7.8 ± 0.3 °C, respectively. Further, the “Kinases with shifts > 5°C” value in [2] is 7–10. Further, on CDK16/Cyclin Y, the EC50 is 54 ± 1.8 nM.
In the case of `COC(=O)c1cc(Nc2ccnc(NCCCCCCNC(=O)OC(C)(C)C)n2)[nH]n1` [21e, methyl 5-((2-((6-((tert-butoxycarbonyl)amino)hexyl)amino)pyrimidin-4-yl)amino)-1H-pyrazole-3-carboxylate], the ΔTm at 10 µM is 8.5 °C at CDK16, 6.5 ± 0.1 °C on CDK2 [1] and 8.6 ± 0.1 °C at GSK3B [3]. Also, on CDK16/Cyclin Y, the EC50 came out at 152 nM. For the same compound, the “stabilization in CETSA MS” value in the experiment with CDK16 and GSK3 was “stabilization of CDK16 and GSK3”.
Regarding `N#CCc1ccc(Nc2nc(Nc3cc(C4CC4)[nH]n3)c3ccccc3n2)cc1` [compound 3], in the experiment with 359 wild-type kinases, the “number of kinases targeted of 359 wild-type kinases” value is 317.
As for `Cc1cc(Nc2cc(N3CCN(C)CC3)nc(Sc3ccc(NC(=O)C4CC4)cc3)n2)[nH]n1` [tozasertib], on CDK2 [5], the “affinity for CDK2” value is “no affinity”. In addition, the “affinity for CDK5” value with CDK5 is reported as “no affinity”.
Turning to `COC(=O)c1cc(Nc2ccnc(Nc3ccc(CNC(=O)OC(C)(C)C)cc3)n2)[nH]n1` [21h, methyl 5-((2-((4-(((tert-butoxycarbonyl)amino)methyl)phenyl)amino)pyrimidin-4-yl)amino)-1H-pyrazole-3-carboxylate], the ΔTm at 10 µM was 5.1 ± 0.1 °C at CDK16, 2.5 ± 0.2 °C at CDK2 [1] and 6 ± 0.3 °C on GSK3B [3]. Besides, in experiment [2], the “Kinases with shifts > 5°C” value is 4–9. At CDK16/Cyclin Y, the EC50 turned out to be 391 nM. The “stabilization in CETSA MS” value in the experiment on CDK16 and GSK3 was “stabilization of CDK16 and GSK3”.
As for `COC(=O)c1cc(Nc2ccnc(Nc3cccc(CCNC(=O)OC(C)(C)C)c3)n2)[nH]n1` [21b, methyl 5-((2-((3-(2-((tert-butoxycarbonyl)amino)ethyl)phenyl)amino)pyrimidin-4-yl)amino)-1H-pyrazole-3-carboxylate], the results for the thermal shift (ΔTm) at 10 µM at CDK16, at CDK2 [1] and at GSK3B [3] were 4.9 °C, 4.6 ± 0.1 °C and 8.6 ± 0.2 °C, respectively. Moreover, at CDK16/Cyclin Y, the concentration for a half-maximal effect (EC50) is 688 ± 22.5 nM. In addition, the “stabilization in CETSA MS” value with CDK16 and GSK3 is “stabilization of CDK16 and GSK3”.
